Ten compounds from patent US20260158177A1, “COMPOUNDS SPECIFIC TO GRANZYME B AND USES THEREOF” (CYTOSITE BIOPHARMA INC., priority 2021, published 2026) can be followed below.

Data set [1] has as its target T1, granzyme B (Human lymphocytes) (Homo sapiens, UniProt P10144).
T1 construct: Matrigel Mouse Model of Active and Pro-Form Granzyme B; purchased Enzo Life Sciences; host or cells: human lymphocytes
Kind of data set: In vivo PET/CT imaging of ^18F-granzyme B tracers in a Matrigel mouse model of active and pro-form granzyme B. Conditions: female nude athymic mice with granzyme B/Matrigel implants, iv ^18F-radiotracer, PET 75-minutes post-injection. The protocol:
Female nude athymic (5-6 weeks, 15-30 g) mice were purchased from Jackson Laboratories. Both granzyme B (Human lymphocytes, Enzo Life Sciences) and inactivated human pro-form granzyme B (R&D Systems) were also commercially purchased. […] Each granzyme B enzyme was then brought up to a final concentration of 0.05 μg/ul using phosphate buffered saline (GE, Hyclone). Matrigel (65 μl, Corning) was mixed with 15 μl of 0.75 μg of each granzyme B enzyme (granzyme B and pro-form granzyme B) within each Eppendorf tube. The mice were then anesthetized with 2.5-3% isoflurane mixed with oxygen. Approximately 60-80 μl of granzyme B/Matrigel or the pro-form granzyme B/Matrigel were then injected using a 28-gauge X 0.5-inch insulin syringe (Terumo) to form implants on the right and left shoulder flanks of the mice. Approximately five minutes later, the mice were administered the ^18F-radiotracer via a bolus intravenous injection (approximately 150 μCi in a total volume of 100 ul saline plus an additional ˜25 ul saline to flush the catheter line). After the radiotracer injection, the catheter was removed and measured for any remaining residual radioactivity. The mice were then placed back in their cage for recovery. A nanoScan® PET/CT (Mediso, Hungary) was used for micro-PET/CT imaging in which 15-minute static PET scans were conducted 75-minutes post-injection of the radiotracer. Tera-Tomo™ 3D PET iterative reconstruction along with scatter correction were then conducted post-acquisition. A short high-resolution computed tomography (CT) scan was also performed immediately after to allow for anatomical registration. PET signal in the granzyme B implants were quantified by manually drawing regions of interest (ROIs) over the Matrigel implants based on the fused PET/CT images and the corresponding activity values were determined with VivoQuant (Invicro, Massachusetts). All values were represented as % injected dose per gram (% ID/g). Target to background ratios (TBR's) were then calculated by dividing the granzyme B % ID/g value by the pro-form granzyme B % ID/g value. PET imaging timepoints and granzyme B concentrations used in these experiments were determined in previous studies (data not shown).

Data set [2] is described as follows: Radioactive metabolite screening in male CD-1 mouse urine by radiometric HPLC. The settings on record: for 60 minutes (% parent in urine): male CD-1 mouse urine, 60 minutes post tail vein injection, n=3; for radiometabolites in urine: mice, urine at 60 min post dose. The data set is classed as in vivo, male CD-1 mice. The protocol:
Radioactive metabolite screening studies were performed by injection of [18F] granzyme B tracers in male CD-1 mice followed by analysis of urine samples at 60 minutes by radiometric HPLC.
Briefly, male CD-1 mice were anesthetized prior to dosing with approximately 250 μCi [^18F] granzyme B tracer via tail vein injection (n=3 mice). Urine samples were collected at the 60 minutes post-injection following anesthesia and cervical dislocation. Samples were diluted 100-fold in water prior to injection by HPLC.
Diluted samples were then analyzed on an Agilent 1290 series UPLC UV coupled with a BGO coincidence detector. The HPLC method utilized either 1) Phenomenex Kinetex EVO C18 (150×2.1 mm, 1.7 micron); 100 μL injection volume; flow-rate: 0.5 mL/min; solvent for A: 0.1% formic acid in water; solvent for B: 100% acetonitrile; gradient: initial hold at 5% B hold for 1 min, 5% to 40% in 7 min, hold 40% B for 2 min, increase from 40% to 95% B in 1 min, hold 95% B for 2 min, and then return to 5% B to reequilibrate, or 2) Phenomenex Monolithic C18 (100×4.6 mm); 100 μL injection volume; flow-rate: 1.2 mL/min; solvent for A: 20 mM ammonium acetate in water; solvent for B: 100% methanol; gradient: same as above.

Numbered stars: 1 amine (or outer) side, 2 acyl side, 3 side chain; on linkers, the order of the positions; unused ones are H or OH. Square brackets hold non-standard residues; d marks the D form. Peptide text beside a SMILES is read from it. * marks the point of attachment. X2 = O=C1CN2CCN(CCN(CC3CCN(CC(=O)*)CC3)CC2)CC(=O)[O][Al]([F])[O]1; NOTA(AlF) = O=C1CN2CCN(CCN(CC(=O)*)CC2)CC(=O)[O][Al]([F])[O]1; Haic = O=C1[C@@H](N[*:1])CCc2cccc3c2N1[C@H](C(=O)[*:2])C3; NH(5-HO-2-oxo-oxolan-4-yl) = O=C1CC(N*)C(O)O1; X1 = O=C(CN1CCN([*:1])CC1)[*:2]

T1 sequence (P10144 21-247): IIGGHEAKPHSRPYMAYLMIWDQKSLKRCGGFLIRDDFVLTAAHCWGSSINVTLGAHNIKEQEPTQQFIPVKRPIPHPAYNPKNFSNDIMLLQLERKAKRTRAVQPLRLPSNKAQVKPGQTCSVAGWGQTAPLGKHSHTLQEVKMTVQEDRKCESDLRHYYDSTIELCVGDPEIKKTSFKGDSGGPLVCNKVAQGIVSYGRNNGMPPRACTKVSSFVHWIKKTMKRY

Consider `CC[C@H](C)[C@H](NC(=O)COCCNC(=O)[C@@H](CCC(=O)O)NC(=O)[C@@H](CCC(=O)O)NC(=O)CN1CCN(C(=O)CN2CCN3CCN(CC2)CC(=O)[O][Al]([F])[O]C(=O)C3)CC1)C(=O)N[C@H]1CCc2cccc3c2N(C1=O)[C@H](C(=O)NC1CC(=O)OC1O)C3` (stereo partly shown) [Compound ^18F-10-Al], for which the “in vivo imaging activity” value in data set [1] was “good imaging activity”.

Turning to `CC[C@H](C)[C@H](NC(=O)CCNC(=O)CN(CC(=O)O)C(=O)CCNC(=O)CN1CCC(CN2CCN3CCN(CC2)CC(=O)[O][Al]([F])[O]C(=O)C3)CC1)C(=O)N[C@H]1CCc2cccc3c2N(C1=O)[C@H](C(=O)NC1CC(=O)OC1O)C3` (stereo partly shown) [Compound ^18F-3-Al], the “in vivo imaging activity” value in data set [1] was “good imaging activity”. In data set [2], the “60 minutes (% parent in urine)” value is recorded as 100% and the radiometabolites in urine result is “no radiometabolites were observed”. Turning to `CC[C@H](C)[C@H](NC(=O)CNC(=O)CNC(=O)[C@H](CCC(=O)O)NC(=O)CN1CCN(C(=O)CN2CCN3CCN(CC2)CC(=O)[O][Al]([F])[O]C(=O)C3)CC1)C(=O)N[C@H]1CCc2cccc3c2N(C1=O)[C@H](C(=O)NC1CC(=O)OC1O)C3` (stereo partly shown) [18F-8-Al] ({NOTA(AlF)}-[X1]EGGI[Haic]-{NH(5-HO-2-oxo-oxolan-4-yl)}), the “in vivo imaging activity” value in data set [1] is recorded as “good imaging activity”. Turning to `CC[C@H](C)[C@H](NC(=O)CCNC(=O)CCNC(=O)[C@@H](CCC(=O)O)NC(=O)CN1CCC(CN2CCN3CCN(CC2)CC(=O)[O][Al]([F])[O]C(=O)C3)CC1)C(=O)N[C@H]1CCc2cccc3c2N(C1=O)[C@H](C(=O)NC1CC(=O)OC1O)C3` (stereo partly shown) [Compound ^18F-1-Al], the “in vivo imaging activity” value in data set [1] was “good imaging activity”. Also, in data set [2], the “60 minutes (% parent in urine)” value came to 100% and the radiometabolites in urine entry was “no radiometabolites were observed”. On to `CC[C@H](C)[C@H](NC(=O)CCNC(=O)CCNC(=O)CN(CC(=O)O)C(=O)CN1CCC(CN2CCN3CCN(CC2)CC(=O)[O][Al]([F])[O]C(=O)C3)CC1)C(=O)N[C@H]1CCc2cccc3c2N(C1=O)[C@H](C(=O)NC1CC(=O)OC1O)C3` (stereo partly shown) [18F-5-Al], for which the “60 minutes (% parent in urine)” value in data set [2] stood at 100%. As for `CC[C@H](C)[C@H](NC(=O)CCNC(=O)CCNC(=O)[C@@H](CCC(=O)O)NC(=O)CN1CCN(C(=O)CN2CCN3CCN(CC2)CC(=O)[O][Al]([F])[O]C(=O)C3)CC1)C(=O)N[C@H]1CCc2cccc3c2N(C1=O)[C@H](C(=O)NC1CC(=O)OC1O)C3` (stereo partly shown) [Compound ^18F-12-Al], the “in vivo imaging activity” value in data set [1] was “good imaging activity”. Turning to `CC[C@H](C)[C@H](NC(=O)COCCNC(=O)[C@@H](CCC(=O)O)NC(=O)[C@@H](CCC(=O)O)NC(=O)CN1CCC(CN2CCN3CCN(CC2)CC(=O)[O][Al]([F])[O]C(=O)C3)CC1)C(=O)N[C@H]1CCc2cccc3c2N(C1=O)[C@H](C(=O)NC1CC(=O)OC1O)C3` (stereo partly shown) [Compound ^18F-4-Al], the “in vivo imaging activity” value in data set [1] is reported as “good imaging activity”. In data set [2], the “60 minutes (% parent in urine)” value was 100% and the radiometabolites in urine result is “no radiometabolites were observed”. Consider `CC[C@H](C)[C@H](NC(=O)CCNC(=O)CCNC(=O)CN(CC(=O)O)C(=O)CN1CCN(C(=O)CN2CCN3CCN(CC2)CC(=O)[O][Al]([F])[O]C(=O)C3)CC1)C(=O)N[C@H]1CCc2cccc3c2N(C1=O)[C@H](C(=O)NC1CC(=O)OC1O)C3` (stereo partly shown) [Compound ^18F-13-Al], for which the “in vivo imaging activity” value in data set [1] was “good imaging activity”. Regarding `CC[C@H](C)[C@H](NC(=O)CNC(=O)CNC(=O)[C@H](CCC(=O)O)NC(=O)CN1CCC(CN2CCN3CCN(CC2)CC(=O)[O][Al]([F])[O]C(=O)C3)CC1)C(=O)N[C@H]1CCc2cccc3c2N(C1=O)[C@H](C(=O)NC1CC(=O)OC1O)C3` (stereo partly shown) [18F-2-Al] (X2-EGGI[Haic]-{NH(5-HO-2-oxo-oxolan-4-yl)}), the “in vivo imaging activity” value in data set [1] is “good imaging activity”. Take `CC[C@H](C)[C@H](NC(=O)CCNC(=O)CC[C@H](NC(=O)CN1CCC(CN2CCN3CCN(CC2)CC(=O)[O][Al]([F])[O]C(=O)C3)CC1)C(=O)O)C(=O)N[C@H]1CCc2cccc3c2N(C1=O)[C@H](C(=O)NC1CC(=O)OC1O)C3` (stereo partly shown) [18F-6-Al]: the “60 minutes (% parent in urine)” value in data set [2] turned out to be 66.3%.
